{"source": "patent US8067042B1", "about": "(Mutual Pharmaceutical Company, Inc., priority 2007, dated 2011)", "key": {"CYP2A6 [1]": {"target": "T1, CYP2A6 (Homo sapiens, UniProt P11509)", "T1 sequence (P11509 1-494)": "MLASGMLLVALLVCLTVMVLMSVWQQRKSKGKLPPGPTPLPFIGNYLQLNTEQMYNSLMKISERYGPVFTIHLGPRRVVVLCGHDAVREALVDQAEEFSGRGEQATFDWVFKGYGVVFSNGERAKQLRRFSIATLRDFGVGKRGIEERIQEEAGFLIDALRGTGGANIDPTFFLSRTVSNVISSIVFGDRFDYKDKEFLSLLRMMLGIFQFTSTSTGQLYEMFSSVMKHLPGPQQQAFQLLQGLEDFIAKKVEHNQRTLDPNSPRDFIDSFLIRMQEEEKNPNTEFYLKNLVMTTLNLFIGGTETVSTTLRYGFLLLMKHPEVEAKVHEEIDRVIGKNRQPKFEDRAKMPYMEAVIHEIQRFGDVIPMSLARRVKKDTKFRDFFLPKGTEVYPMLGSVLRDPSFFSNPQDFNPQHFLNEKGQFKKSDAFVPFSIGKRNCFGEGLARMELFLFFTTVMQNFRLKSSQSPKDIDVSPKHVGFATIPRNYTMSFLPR", "details": "10 μM Tranylcypromine"}, "CYP2E1 [2]": {"target": "T2, CYP2E1 (Homo sapiens, UniProt P05181)", "T2 sequence (P05181 whole entry)": "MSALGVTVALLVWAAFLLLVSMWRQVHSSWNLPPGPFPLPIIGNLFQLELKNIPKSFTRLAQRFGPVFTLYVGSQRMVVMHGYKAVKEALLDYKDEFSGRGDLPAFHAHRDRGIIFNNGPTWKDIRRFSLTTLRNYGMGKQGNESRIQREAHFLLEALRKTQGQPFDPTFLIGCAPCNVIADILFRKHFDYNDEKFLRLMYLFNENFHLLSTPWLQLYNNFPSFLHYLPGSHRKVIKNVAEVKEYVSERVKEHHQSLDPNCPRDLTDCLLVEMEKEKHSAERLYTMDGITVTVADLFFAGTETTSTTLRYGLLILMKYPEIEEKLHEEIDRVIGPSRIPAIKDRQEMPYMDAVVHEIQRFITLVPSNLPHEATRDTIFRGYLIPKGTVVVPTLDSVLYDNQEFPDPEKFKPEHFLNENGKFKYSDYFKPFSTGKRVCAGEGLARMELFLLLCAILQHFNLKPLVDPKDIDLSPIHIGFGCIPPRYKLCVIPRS", "details": "60 min, 100 μM, pH 7.4"}, "CYP1A2": {"target": "T3, CYP1A2 (Homo sapiens, UniProt P05177)", "T3 sequence (P05177 1-516)": "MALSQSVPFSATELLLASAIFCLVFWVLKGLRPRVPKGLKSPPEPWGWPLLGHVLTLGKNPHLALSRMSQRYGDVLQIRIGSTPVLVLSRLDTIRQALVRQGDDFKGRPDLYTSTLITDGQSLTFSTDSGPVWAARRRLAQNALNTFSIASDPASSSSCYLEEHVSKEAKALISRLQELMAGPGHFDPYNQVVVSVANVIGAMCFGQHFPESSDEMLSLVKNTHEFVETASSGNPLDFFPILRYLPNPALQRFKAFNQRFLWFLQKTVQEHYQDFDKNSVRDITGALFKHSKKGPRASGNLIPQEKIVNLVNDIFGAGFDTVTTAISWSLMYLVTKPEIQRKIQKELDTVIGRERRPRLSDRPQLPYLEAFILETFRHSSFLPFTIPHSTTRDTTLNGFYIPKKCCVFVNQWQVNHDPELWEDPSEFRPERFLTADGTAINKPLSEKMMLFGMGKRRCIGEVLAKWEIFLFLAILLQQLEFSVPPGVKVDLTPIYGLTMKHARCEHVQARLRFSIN", "details": "60 min, 5 μM, pH 7.4"}, "CYP2C8 [3]": {"system": "CYP2C8", "assay_type": "in vitro ADME", "details": "50 μM megestrol acetate (Parent)"}, "CYP2B6 [4]": {"target": "T4, CYP2B6 (Homo sapiens, UniProt P20813)", "T4 sequence (P20813 1-491)": "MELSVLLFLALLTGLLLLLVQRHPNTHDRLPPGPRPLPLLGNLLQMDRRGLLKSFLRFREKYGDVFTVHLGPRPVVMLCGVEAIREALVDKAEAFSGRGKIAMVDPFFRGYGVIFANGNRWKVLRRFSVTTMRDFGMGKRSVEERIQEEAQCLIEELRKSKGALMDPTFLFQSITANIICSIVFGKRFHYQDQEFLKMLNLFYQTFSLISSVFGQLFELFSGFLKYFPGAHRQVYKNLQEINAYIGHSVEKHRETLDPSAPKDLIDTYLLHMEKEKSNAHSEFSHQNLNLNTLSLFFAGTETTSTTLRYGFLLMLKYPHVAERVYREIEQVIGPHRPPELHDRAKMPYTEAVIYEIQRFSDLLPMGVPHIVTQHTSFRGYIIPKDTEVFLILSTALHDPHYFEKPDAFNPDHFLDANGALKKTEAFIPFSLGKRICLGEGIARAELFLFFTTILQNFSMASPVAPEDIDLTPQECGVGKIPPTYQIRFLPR", "assay_type": "in vitro ADME", "design": "purchased BD Biosciences Discovery Labware, Woburn, Mass; host or cells: baculovirus-infected insect cells", "details": "LC/MS; 50 μM megestrol acetate (Parent), 20 pmol Human CYP2B6 + P450 Reductase + Cytochrome b5 SUPERSOMES"}, "CYP2B6 [5]": {"target": "T4, CYP2B6", "details": "50 μM megestrol acetate (Parent), 0.5 mg/mL pooled human liver microsomes with 1% methanol (no inhibitor)"}, "CYP2A6 [6]": {"system": "CYP2A6", "details": "50 μM megestrol acetate (Parent), 0.5 mg/mL pooled human liver microsomes with 1% water (no inhibitor)"}, "CYP2A6 [7]": {"target": "T1, CYP2A6", "assay_type": "in vitro ADME", "design": "purchased BD Biosciences Discovery Labware, Woburn, Mass; host or cells: baculovirus-infected insect cells", "details": "LC/MS; 50 μM megestrol acetate (Parent), 20 pmol Human CYP2A6 + P450 Reductase + Cytochrome b5 SUPERSOMES"}, "CYP2E1 [8]": {"system": "CYP2E1", "assay_type": "in vitro ADME", "details": "50 μM megestrol acetate (Parent)"}, "CYP2E1 [9]": {"target": "T2, CYP2E1", "assay_type": "in vitro ADME", "design": "purchased BD Biosciences Discovery Labware, Woburn, Mass; host or cells: baculovirus-infected insect cells", "details": "LC/MS; 50 μM megestrol acetate (Parent), 20 pmol Human CYP2E1 + P450 Reductase + Cytochrome b5 SUPERSOMES"}, "CYP2C8 [10]": {"target": "T5, CYP2C8 (Homo sapiens, UniProt P10632)", "T5 sequence (P10632 1-490)": "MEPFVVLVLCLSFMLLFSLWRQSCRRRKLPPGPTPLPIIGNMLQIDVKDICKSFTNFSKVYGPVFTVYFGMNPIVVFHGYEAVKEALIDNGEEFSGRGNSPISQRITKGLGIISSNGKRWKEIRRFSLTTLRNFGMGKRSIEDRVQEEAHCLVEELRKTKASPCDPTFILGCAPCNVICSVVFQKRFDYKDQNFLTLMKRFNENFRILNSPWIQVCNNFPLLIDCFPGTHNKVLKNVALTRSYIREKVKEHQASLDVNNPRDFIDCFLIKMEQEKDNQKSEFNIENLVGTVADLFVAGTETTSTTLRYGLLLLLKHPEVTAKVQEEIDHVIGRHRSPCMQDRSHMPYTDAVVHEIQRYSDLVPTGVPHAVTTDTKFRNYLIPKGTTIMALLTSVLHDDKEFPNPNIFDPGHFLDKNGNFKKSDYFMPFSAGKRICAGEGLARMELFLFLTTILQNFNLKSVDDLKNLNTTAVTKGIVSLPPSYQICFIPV", "assay_type": "in vitro ADME", "design": "purchased BD Biosciences Discovery Labware, Woburn, Mass; host or cells: baculovirus-infected insect cells", "details": "LC/MS; 50 μM megestrol acetate (Parent), 20 pmol Human CYP2C8 + P450 Reductase + Cytochrome b5 SUPERSOMES"}, "CYP2C8 [11]": {"target": "T5, CYP2C8", "details": "60 min, 100 μM, pH 7.4", "method": "After a 5-minute pre-incubation, NRS was added to the incubation mixtures to initiate reactions. The final incubation volume was 0.5 mL. Incubations were continued for 60 minutes. […] In these experiments, each CYP isoform-selective substrate was prepared as 100× stock solutions in the solvent listed below.\nIncubation reactions for positive controls were terminated by adding 0.5 mL methanol, except for paclitaxel (CYP2C8) which was terminated by adding 0.75 mL of acetonitrile.\nSpecific activity for each CYP isoform was calculated based on the formation of metabolite from each CYP isoform-selective substrate."}, "[12]": {"details": "0.5 mg/mL pooled human liver microsomes with 100 μM Quercetin"}, "[13]": {"details": "0.5 mg/mL pooled human liver microsomes with 0.1% DMSO (no inhibitor)"}, "[14]": {"details": "0.5 mg/mL pooled human liver microsomes with 100 μM Diethyldithiocarbamate"}, "[15]": {"details": "0.5 mg/mL pooled human liver microsomes with 1% water (no inhibitor)"}}, "note": "Several values for one entry are separate records, joined by “and”; a condition that tells them apart may be missing. Identical values can stand only once. Like-named read-outs stand apart in the source and are kept apart here.", "data": [{"smiles": "N[C@@H]1C[C@H]1c1ccccc1", "note": "(racemic) [Tranylcypromine]", "values": [{"measurement": "CYP2A6 activity in presence of inhibitor", "setting": "CYP2A6 [1]", "value": "18.7±0.597 pmol metabolite/minute/mg protein"}, {"measurement": "Metabolite Formation Adjusted Individual", "setting": "CYP2A6 [1]", "value": "0.582 µM and 0.548 µM and 0.556 µM"}, {"measurement": "Metabolite Formation Adjusted Mean ± SD", "setting": "CYP2A6 [1]", "value": "0.562 ± 0.0179", "unit": "µM"}, {"measurement": "Metabolite Formation Raw", "setting": "CYP2A6 [1]", "value": "0.582 µM and 0.5477 µM and 0.5561 µM"}, {"measurement": "Specific Activity Individual", "setting": "CYP2A6 [1]", "value": "19.4 pmol metabolite/min/pmol protein and 18.3 pmol metabolite/min/pmol protein and 18.5 pmol metabolite/min/pmol protein"}, {"measurement": "Specific Activity Mean ± SD", "setting": "CYP2A6 [1]", "value": "18.7 ± 0.597 pmol metabolite/min/pmol protein"}]}, {"smiles": "CCN(CC)C(=S)S", "note": "[DDC, Diethyldithiocarbamate]", "values": [{"measurement": "Metabolite Formation Adjusted Mean ± SD", "setting": "CYP2E1 [2]", "value": "1.77 ± 0.0341", "unit": "µM"}, {"measurement": "Specific Activity Mean ± SD", "setting": "CYP2E1 [2]", "value": "58.9 ± 1.14 pmol metabolite/min/pmol protein"}, {"measurement": "CYP2E1 activity in presence of inhibitor", "setting": "CYP2E1 [2]; microsomes", "value": "58.9±1.14 pmol metabolite/minute/mg protein"}]}, {"smiles": "Cc1nc2c([nH]1)c(=O)n(C)c(=O)n2Cc1ccco1", "note": "[Furafylline]", "values": [{"measurement": "Metabolite Formation Adjusted Mean ± SD", "setting": "CYP1A2", "value": "0.593 ± 0.0333", "unit": "µM"}]}, {"smiles": "CC(=O)O[C@]1(C(C)=O)CC[C@H]2[C@@H]3C=C(C)C4=CC(=O)CC[C@]4(C)[C@H]3CC[C@@]21C", "note": "[Parent]", "values": [{"measurement": "Area %", "setting": "CYP2C8 [3]; [12]", "value": 99.11, "unit": "%"}, {"measurement": "Peak Area", "setting": "CYP2C8 [3]; [12]", "value": 5734.70}, {"measurement": "Area %", "setting": "CYP2C8 [3]; [13]", "value": 69.53, "unit": "%"}, {"measurement": "Peak Area", "setting": "CYP2C8 [3]; [13]", "value": 4151.30}, {"measurement": "Area %", "setting": "CYP2B6 [4]", "value": 98.77, "unit": "%"}, {"measurement": "Peak Area", "setting": "CYP2B6 [4]", "value": 7320.20}, {"measurement": "Area %", "setting": "CYP2B6 [5]", "value": 63.45, "unit": "%"}, {"measurement": "Peak Area", "setting": "CYP2B6 [5]", "value": 2924.70}, {"measurement": "Area %", "setting": "CYP2A6 [6]", "value": 59.79, "unit": "%"}, {"measurement": "Peak Area", "setting": "CYP2A6 [6]", "value": 2932.40}, {"measurement": "Area %", "setting": "CYP2A6 [7]", "value": 100.00, "unit": "%"}, {"measurement": "Peak Area", "setting": "CYP2A6 [7]", "value": 7120.60}, {"measurement": "Area %", "setting": "CYP2E1 [8]; [14]", "value": 90.95, "unit": "%"}, {"measurement": "Peak Area", "setting": "CYP2E1 [8]; [14]", "value": 5225.10}, {"measurement": "Area %", "setting": "CYP2E1 [8]; [15]", "value": 59.79, "unit": "%"}, {"measurement": "Peak Area", "setting": "CYP2E1 [8]; [15]", "value": 3520.60}, {"measurement": "Area %", "setting": "CYP2E1 [9]", "value": 100.00, "unit": "%"}, {"measurement": "Peak Area", "setting": "CYP2E1 [9]", "value": 7274.10}, {"measurement": "Area %", "setting": "CYP2C8 [10]", "value": 99.28, "unit": "%"}, {"measurement": "Peak Area", "setting": "CYP2C8 [10]", "value": 7474.90}]}, {"smiles": "O=c1c(O)c(-c2ccc(O)c(O)c2)oc2cc(O)cc(O)c12", "note": "[Quercetin]", "values": [{"measurement": "Specific Activity Mean ± SD", "setting": "CYP2C8 [11]", "value": "2.64 ± 0.250 pmol metabolite/min/pmol protein"}, {"measurement": "CYP2C8 activity in presence of inhibitor", "setting": "CYP2C8 [11]; microsomes", "value": "2.64±0.250 pmol metabolite/minute/mg protein"}]}]}
